One assay addresses T1, HDAC6 (Homo sapiens, UniProt Q9UBN7).
T1 construct: BC069243; Cat. #50006) is full-length with N-terminal GST tag; GST (N); purchased BPS Biosciences 50006; host or cells: baculovirus infected Sf9 cells
T1 sequence (Q9UBN7 1-1215): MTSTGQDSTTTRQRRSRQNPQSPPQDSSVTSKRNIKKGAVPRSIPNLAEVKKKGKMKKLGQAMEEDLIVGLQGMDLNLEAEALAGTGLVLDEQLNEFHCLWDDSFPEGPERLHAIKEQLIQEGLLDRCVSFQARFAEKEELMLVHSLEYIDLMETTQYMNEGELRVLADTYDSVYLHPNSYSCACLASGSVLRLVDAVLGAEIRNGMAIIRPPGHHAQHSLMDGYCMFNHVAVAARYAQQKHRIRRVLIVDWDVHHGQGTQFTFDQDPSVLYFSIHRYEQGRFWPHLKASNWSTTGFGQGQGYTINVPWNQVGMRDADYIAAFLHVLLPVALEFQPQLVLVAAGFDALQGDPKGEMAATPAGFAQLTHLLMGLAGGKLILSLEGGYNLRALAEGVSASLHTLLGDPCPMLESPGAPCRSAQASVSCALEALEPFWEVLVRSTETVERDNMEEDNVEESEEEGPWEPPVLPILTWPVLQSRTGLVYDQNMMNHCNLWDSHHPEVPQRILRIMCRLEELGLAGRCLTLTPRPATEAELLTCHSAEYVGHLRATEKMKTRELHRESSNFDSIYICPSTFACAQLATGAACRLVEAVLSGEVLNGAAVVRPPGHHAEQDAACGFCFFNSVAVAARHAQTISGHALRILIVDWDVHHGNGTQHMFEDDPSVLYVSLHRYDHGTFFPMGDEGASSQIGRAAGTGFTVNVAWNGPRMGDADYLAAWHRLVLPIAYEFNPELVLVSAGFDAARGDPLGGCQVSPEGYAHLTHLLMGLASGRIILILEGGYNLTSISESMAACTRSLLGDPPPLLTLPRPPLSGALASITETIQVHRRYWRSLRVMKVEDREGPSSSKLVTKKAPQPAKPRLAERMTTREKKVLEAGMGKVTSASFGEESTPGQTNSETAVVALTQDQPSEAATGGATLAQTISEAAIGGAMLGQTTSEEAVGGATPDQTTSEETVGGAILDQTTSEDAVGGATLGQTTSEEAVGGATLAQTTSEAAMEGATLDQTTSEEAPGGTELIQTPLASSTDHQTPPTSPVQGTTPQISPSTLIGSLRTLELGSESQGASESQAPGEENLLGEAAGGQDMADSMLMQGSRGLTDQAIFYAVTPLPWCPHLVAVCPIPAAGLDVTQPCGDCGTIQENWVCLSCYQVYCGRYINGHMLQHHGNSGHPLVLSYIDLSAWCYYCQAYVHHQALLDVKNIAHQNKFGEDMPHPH
Nature of the assay: HDAC enzyme activity assay (fluorogenic substrate), HDAC6. The class given is biochemical. The note with it: recombinant enzyme; read-out: HDAC6 inhibition (IC50).

Assay [1] has as its system phosphorylated tau (p-tau). Nature of the assay: AD-related markers in Tg2576 neurons: pTau. The class given is cell-based. The note with it: Mus musculus, Neuron, 48 h, treated two days, EC50 = 50% decrease in pTau over basal.
For assay [2], the system named is carboxyl terminal fragment AβPP (C99). Put plainly: AD-related markers in Tg2576 neurons: APP processing (C99). As to conditions: Mus musculus, Neuron, 48 h, treated two days, EC50 = 50% decrease in C99 over basal. In kind it is cell-based. The protocol:
The effects of the compounds on amyloid pathology were analysed in primary cultures (15 DIV) of neurons derived from the hippocampus and cortex of Tg2576 mouse embryos. Tg2576 mice express the human 695-aa isoform of APP (hAPP) containing the Swedish double mutation, which favours Aβ production. Neurons were treated for two days and collected at day 3, 24 h after the last treatment. First it was analysed the effect of the compounds on hAPP processing by the amyloidogenic pathway by measuring the carboxyl terminal fragment AβPP (C99), which is the precursor of Aβ42. In this case the reported EC50, Table 2 (below), means a 50% decrease in C99 levels over basal (saline, no treatment).
To analyze APP-derived fragments and p-tau levels in primary neuronal cultures, cells were collected in a buffer containing SDS (2%), Tris-HCl (10 mM, pH 7.4), protease inhibitors (1 mM PMSF and Complete Protease Inhibitor Cocktail: Roche Diagnostics) and phosphatase inhibitors (0.1 mM Na3VO4 and 1 mM NaF). The homogenates were sonicated for 2 min and centrifuged at 100,000×g for 1 h. Aliquots of the supernatant were frozen at −80° C. and their protein concentrations determined by the Bradford method using the Bio-Rad protein assay (Bio-Rad, Hercules, Calif., USA). Aliquots of the protein extracts were mixed with XT sample buffer plus XT reducing agent (Bio-Rad, Hercules, Calif., USA) and boiled for 5 min. Proteins were separated in a Criterion precast Bis-Tris 4-12% gradient precast gel (Bio-Rad, Hercules, Calif., USA) and transferred to a PVDF membrane with a removal rating of […] (Hybond LFP, Amersham Biosciences, Little Chalfont, UK). The membranes were blocked with 5% milk, 0.05% Tween-20 in PBS or TBS, and incubated overnight with the following primary antibodies in the corresponding buffers: mouse monoclonal anti-phosphotau AT8 (Pierce Biotechnology Inc., Rockford), mouse monoclonal anti-tau (clone Tau46, Sigma-Aldrich, St Louis, Mo.), 6E10 mouse monoclonal antibody (amino acids 1-17 of Aβ peptide; Millipore), mouse monoclonal anti-β-actin, mouse monoclonal anti-α-tubulin and mouse monoclonal anti-Acetylated-tubulin (Sigma). All antibodies were used at dilutions of 1:1,000 except for the mouse monoclonal anti-β-actin, anti-Acetylated-tubulin and anti-tubulin (1:50,000). Following two washes in TBS/Tween20 and one wash in TBS alone, immunolabelled protein bands were detected using HRP-conjugated anti-rabbit or anti-mouse antibodies (diluted 1:5,000: Santa Cruz). Binding was visualised by enhanced chemiluminescence (ECL, GE Healthcare Bioscience, Buckinghamshire, UK) and autoradiographic exposure to Hyperfilm ECL (GE Healthcare Bioscience), using Quantity One™ software v.4.6.3 (Bio-Rad) for quantification.

The target in the next assay is T2, PDE9A isoform b (Homo sapiens, UniProt O76083).
T2 construct: they are full-length with N-terminal GST tag; GST (N); purchased BPS Biosciences 60090; host or cells: baculovirus infected Sf9 cells
Nature of the assay: PDE enzyme activity assay (HTRF cGMP), PDE9A. As to conditions: recombinant enzyme; read-out: PDE9A inhibition (IC50). In kind it is biochemical. In general terms: In TR-FRET formats the signal depends on donor and acceptor labels being close together.

In general, IC50 refers to the concentration that gives 50% inhibition.

T2 sequence (O76083 1-533 isoform O76083-2): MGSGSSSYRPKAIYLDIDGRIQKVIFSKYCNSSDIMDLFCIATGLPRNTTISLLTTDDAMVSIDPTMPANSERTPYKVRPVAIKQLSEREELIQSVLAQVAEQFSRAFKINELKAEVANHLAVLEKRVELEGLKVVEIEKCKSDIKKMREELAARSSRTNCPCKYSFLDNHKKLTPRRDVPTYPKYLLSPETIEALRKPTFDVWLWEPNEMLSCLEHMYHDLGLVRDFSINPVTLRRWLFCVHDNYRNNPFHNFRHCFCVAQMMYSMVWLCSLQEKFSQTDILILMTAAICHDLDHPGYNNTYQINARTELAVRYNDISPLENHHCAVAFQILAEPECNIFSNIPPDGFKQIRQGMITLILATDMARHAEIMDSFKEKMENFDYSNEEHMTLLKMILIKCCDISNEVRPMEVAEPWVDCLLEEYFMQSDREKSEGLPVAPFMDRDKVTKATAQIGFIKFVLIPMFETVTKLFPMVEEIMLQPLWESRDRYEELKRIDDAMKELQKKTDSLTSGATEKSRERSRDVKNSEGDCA

In the case of `CCCc1nn(C)c2c(=O)[nH]c(-c3cc(CC4CC(C(=O)NO)C4)ccc3OCC)nc12` (racemic) [Example 1-19, 3-[[4-ethoxy-3-(1-methyl-7-oxo-3-propyl-6H-pyrazolo[4,3-d]pyrimidin-5-yl)phenyl]methyl]cyclobutanecarbohydroxamic acid], at HDAC6, the IC50 was in the range of 10 to 1000 nM. In addition, the EC50 in assay [1] and in assay [2] was 10 to 1000 nM throughout.

Take `CCCc1nn(C)c2c(=O)[nH]c(-c3cc(S(=O)(=O)N4CCN(c5ncc(C(=O)NO)cn5)CC4)ccc3OCC)nc12` [Example 1-06, 2-(4-[3-(6,7-Dihydro-1-methyl-7-oxo-3-propyl-1H-pyrazolo[4,3-d]pyrimidin-5-yl)-4-ethoxyphenylsulfonyl]piperazin-1-yl)-N-hydroxypyrimidine-5-carboxamide]: the IC50 on PDE9A isoform b was over 10000 nM; at HDAC6, 10 to 1000 nM. This compound showed an EC50 in assay [2] of 10 to 1000 nM.

Turning to `CCCc1nn(C)c2c(=O)[nH]c(-c3cc(Cc4ccc(C(=O)NO)cc4)ccc3OCC)nc12` [Example 1-15, 4-[[4-ethoxy-3-(1-methyl-7-oxo-3-propyl-6H-pyrazolo[4,3-d]pyrimidin-5-yl)phenyl]methyl]benzenecarbohydroxamic acid], the IC50 at HDAC6 fell in the range of 10 to 1000 nM. The EC50 in assay [2] lay within 10 to 1000 nM.

On to `CCCc1nn(C)c2c(=O)[nH]c(-c3cc(Cc4ccc(C(=O)NO)s4)ccc3OCC)nc12` [Example 1-16], for which, at HDAC6, the IC50 lay in the range of 10 to 1000 nM. For the same compound, the EC50 in assay [1] and in assay [2] was 10 to 1000 nM throughout.

For the origin of these results see US9573956B2, “Compounds as dual inhibitors of phosphodiesterases and histone deacetylases” (FUNDACIÓN PARA LA INVESTIGACIÓN MÉDICA APLICADA, priority 2013, dated 2017).
